The text below walks through data of patent publication US12544387B2, “Methods and compositions for testosterone production” (priority 2023, dated 2026).

Data set [1] relates to endogenous testosterone, LH, and FSH production. In words: Example 3: hormone levels after enclomiphene. The data set is classed as in vivo, human. The note with it: 6.25 mg enclomiphene; n=1. Here is the method: This example investigated the effects of administering a SERM (enclomiphene) on endogenous testosterone, LH, and FSH production.
Hormone levels were measured after administration of 6.25 mg of enclomiphene (see Table 3, n=1).

A short description of data set [2]: Testosterone concentration at time points after 200 mg of testosterone (FIG. 1). The procedure: FIG. 1 is a phase diagram of the testosterone concentration in a patient at various time points after being administered 200 mg of testosterone.
Hormone levels were measured after co-administration of 200 mg of testosterone and 6.25 mg of enclomiphene for 30 days. Testosterone concentration was measured at +4 hours and +12 hours after administration. […] Testosterone concentration was measured at +4 hours after administration to capture the peak testosterone concentration (cMax) and +12 hours after administration to capture the trough testosterone concentration (cMin) to determine if endogenous testosterone suppression is prevented with the enclomiphene.

Turning to `CCN(CC)CCOc1ccc(/C(=C(/Cl)c2ccccc2)c2ccccc2)cc1` [enclomiphene], in data set [1], the “Sex Hormone Binding Globulin” value was 20 nmol/L and the “increase of calculated free testosterone from baseline (114 pg/mL)” value is reported as 73%.

On to `C[C@]12CC[C@H]3[C@@H](CCC4=CC(=O)CC[C@@]43C)[C@@H]1CC[C@@H]2O` [testosterone, 17β-hydroxy-4-androsten-3-one], for which, in data set [2], the “time of testosterone peak” value lay in the range of 3 to 5 h and the “time until testosterone is out of the system” value is at most 12 h.
